Assay results from ChEMBL document CHEMBL1158502, “Gomphostenins: two new antimalarial compounds from the leaves of Gomphostemma niveum” (Bioorg Med Chem Lett, 2010).
≈ marks a conversion by molar mass, not a printed value.

Tests used:
Plasmodium falciparum [1] = assay: Antiplasmodial activity against chloroquine-sensitive Plasmodium falciparum MRC-02 in human B+ erythrocytes assessed as inhibition of schizont maturation after 24 hrs by conventional parasite culture method; type: functional, organism-based; settings: MRC-02, 24 h
Plasmodium falciparum [2] = assay: Antiplasmodial activity against chloroquine-resistant Plasmodium falciparum in human B+ erythrocytes assessed as inhibition of schizont maturation after 24 hrs by conventional parasite culture method; type: functional, organism-based
Plasmodium falciparum [3] = assay: Antiplasmodial activity against chloroquine-sensitive Plasmodium falciparum MRC-02 in human B+ erythrocytes assessed as inhibition of schizont maturation at 0.25 ug/mL after 24 hrs by conventional parasite culture method; type: functional; settings: MRC-02, 24 h

Structure (SMILES)	IC50 (Plasmodium falciparum [1]) [µg/mL]	IC50 (Plasmodium falciparum [2]) [µg/mL]	inhibition at 0.25 µg/mL (Plasmodium falciparum [3]) [%]
CC(=O)OC[C@@H]1CC[C@]2(C)C(C)=CC(=O)C[C@H]2[C@]1(C)CCC1=CCOC1=O	3.4 (≈ 9.08 µM)	3.2 (≈ 8.55 µM)	
CCN(CC)CCCC(C)Nc1ccnc2cc(Cl)ccc12 (stereo not given) [CHLOROQUINE]			100
CC1=CC(=O)C[C@H]2[C@](C)(CCC3=CCOC3=O)[C@H](CO)CC[C@]12C [GOMPHOSTENIN]	38.2 (≈ 115 µM)	37.7 (≈ 113 µM)	
